Several values for one entry are separate records, joined by “and”; a condition that tells them apart may be missing. Identical values can stand only once. Toxic doses and inconclusive results are not listed. Rule as the data show it: active = T/C of 150% or more; inactive = T/C below 125%.
Tested on: L1210 leukemia ip in BDF1 mice, survival T/C
Test: NCI In Vivo Anticancer Drug Screen. Data for tumor model L1210 Leukemia (intraperitoneal) in B6D2F1 (BDF1) mice
Conditions: endpoint: mean survival time, higher = longer survival
How it was run: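 Survival endpoint. Drug-treated group vs vehicle group, expressed as T divided by C. Tumor passaged by transplantation.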

[1] = dose: 50.0 mg/kg/injection, schedule: Q01DX001 (ip), vehicle: carboxymethylcellulose (CMC)
[2] = dose: 100.0 mg/kg/injection, schedule: Q01DX001 (ip), vehicle: carboxymethylcellulose (CMC)
[3] = dose: 200.0 mg/kg/injection, schedule: Q01DX001 (ip), vehicle: carboxymethylcellulose (CMC)
[4] = dose: 400.0 mg/kg/injection, schedule: Q01DX001 (ip), vehicle: carboxymethylcellulose (CMC)
[5] = dose: 50.0 mg/kg/injection, schedule: Q01DX001 (ip), vehicle: saline
[6] = dose: 100.0 mg/kg/injection, schedule: Q01DX001 (ip), vehicle: saline
[7] = dose: 200.0 mg/kg/injection, schedule: Q01DX001 (ip), vehicle: saline
[8] = dose: 100.0 mg/kg/injection, schedule: Q01DX009 (ip), vehicle: Klucel (hydroxypropylcellulose) (HPC)
[9] = dose: 100.0 mg/kg/injection, schedule: Q04DX003 (ip), vehicle: Klucel (hydroxypropylcellulose) (HPC)
[10] = dose: 200.0 mg/kg/injection, schedule: Q01DX009 (ip), vehicle: Klucel (hydroxypropylcellulose) (HPC)
[11] = dose: 200.0 mg/kg/injection, schedule: Q04DX003 (ip), vehicle: Klucel (hydroxypropylcellulose) (HPC)
[12] = dose: 400.0 mg/kg/injection, schedule: Q04DX003 (ip), vehicle: Klucel (hydroxypropylcellulose) (HPC)
[13] = dose: 400.0 mg/kg/injection, schedule: Q01DX009 (ip), vehicle: Klucel (hydroxypropylcellulose) (HPC)
[14] = dose: 100.0 mg/kg/injection, schedule: Q04DX002 (ip), vehicle: Klucel (hydroxypropylcellulose) (HPC)
[15] = dose: 200.0 mg/kg/injection, schedule: Q04DX002 (ip), vehicle: Klucel (hydroxypropylcellulose) (HPC)
[16] = dose: 400.0 mg/kg/injection, schedule: Q04DX002 (ip), vehicle: Klucel (hydroxypropylcellulose) (HPC)
[17] = dose: 400.0 mg/kg/injection, schedule: Q01DX001 (ip), vehicle: saline
[18] = dose: 100.0 mg/kg/injection, schedule: Q04DX003 (ip), vehicle: saline with Tween-80
[19] = dose: 200.0 mg/kg/injection, schedule: Q04DX003 (ip), vehicle: saline with Tween-80

Measured: T/C

CSc1ncc(CO)c(N)n1
inactive: [1] 111 % of control | [2] 98 % of control | [3] 102 % of control | [4] 111 % of control

FCCNCCF
inactive: dose: 5.0 mg/kg/injection, schedule: Q01DX001 (ip), vehicle: saline 101 % of control | dose: 10.0 mg/kg/injection, schedule: Q01DX001 (ip), vehicle: saline 112 % of control

O=C(Nc1ccccc1)Nc1cccc(C(F)(F)F)c1
inactive: [1] 104 % of control | [2] 102 % of control | [3] 107 % of control | [4] 109 % of control

O=[N+]([O-])c1cc2c(nc3ccccn32)c2ccccc12
inactive: [5] 97 % of control | [6] 96 % of control | [7] 97 % of control

CC(Br)c1ccc2c(c1)Cc1ccccc1-2 (stereo unspecified)
inactive: [2] 97 % of control | [3] 89 % of control | [4] 97 % of control

O=C1NC(=O)C2(CCc3ccccc3C2)N1 (stereo unspecified)
inactive: dose: 50.0 mg/kg/injection, schedule: Q01DX009 (ip), vehicle: Klucel (hydroxypropylcellulose) (HPC) 96 % of control | [8] 96 % of control | [9] 100 % of control | dose: 100.0 mg/kg/injection, schedule: Q04DX003 (ip), vehicle: acetone 96 % of control | [10] 93 % of control | [11] 97 % of control | dose: 200.0 mg/kg/injection, schedule: Q04DX003 (ip), vehicle: acetone 95 % of control | [12] 97 % of control | dose: 400.0 mg/kg/injection, schedule: Q04DX003 (ip), vehicle: acetone 95 % of control

CCN(CC)CCOc1ccc(-c2nc3cc(Cl)ccc3s2)cc1
inactive: dose: 15.0 mg/kg/injection, schedule: Q01DX015 (ip), vehicle: saline 95 % of control | dose: 30.0 mg/kg/injection, schedule: Q01DX015 (ip), vehicle: saline 94 % of control | dose: 60.0 mg/kg/injection, schedule: Q01DX015 (ip), vehicle: saline 94 % of control | dose: 120.0 mg/kg/injection, schedule: Q01DX015 (ip), vehicle: saline 91 % of control

COc1cc2c(cc1O)C(Cc1ccc(OC)c(OC)c1)N(C)CC2 (stereo unspecified)
inactive: dose: 75.0 mg/kg/injection, schedule: Q01DX001 (ip), vehicle: other 93 % of control | dose: 150.0 mg/kg/injection, schedule: Q01DX001 (ip), vehicle: other 101 % of control

O=C(NCCCCCCNC(=O)OCc1ccccc1)OCc1ccccc1
inactive: dose: 10.0 mg/kg/injection, schedule: Q01DX Z (ip), vehicle: saline 98 % of control | dose: 30.0 mg/kg/injection, schedule: Q01DX Z (ip), vehicle: saline 96 % of control | dose: 100.0 mg/kg/injection, schedule: Q01DX Z (ip), vehicle: saline 100 % of control | dose: 300.0 mg/kg/injection, schedule: Q01DX Z (ip), vehicle: saline 98 % of control

O=C1C2C(C(=O)N1c1ccc(Br)cc1)C1(Cl)C(Cl)=C(Cl)C2(Cl)C1(Cl)Cl (stereo unspecified)
inactive: [8] 104 % of control | [9] 101 % of control | [10] 102 % of control | [11] 111 % of control | [13] 96 % of control | [12] 104 % of control

O=C(Nc1ccccc1F)Oc1ccc(F)cc1
inactive: dose: 100.0 mg/kg/injection, schedule: Q01DX001 (ip), vehicle: Klucel (hydroxypropylcellulose) (HPC) 97 % of control | [8] 102 % of control and 91 % of control | [14] 101 % of control and 89 % of control | dose: 200.0 mg/kg/injection, schedule: Q01DX001 (ip), vehicle: Klucel (hydroxypropylcellulose) (HPC) 97 % of control | [10] 98 % of control and 109 % of control | [15] 96 % of control and 98 % of control | dose: 400.0 mg/kg/injection, schedule: Q01DX001 (ip), vehicle: Klucel (hydroxypropylcellulose) (HPC) 96 % of control | [13] 98 % of control and 107 % of control | [16] 101 % of control and 104 % of control

Cc1ccc(C(c2ccc(C)c(C)c2)C(c2ccc(C)c(C)c2)C(O)C(O)C(O)CO)cc1C (stereo unspecified)
inactive: [5] 93 % of control | [6] 106 % of control | [7] 98 % of control | [17] 98 % of control

Nc1ccc(C(=O)Oc2ccc([N+](=O)[O-])cc2)cc1
inactive: [18] 98 % of control | [19] 88 % of control | dose: 400.0 mg/kg/injection, schedule: Q04DX003 (ip), vehicle: saline with Tween-80 86 % of control

OCC1(CO)CCC1(CO)CO
inactive: dose: 75.0 mg/kg/injection, schedule: Q01DX001 (ip), vehicle: saline 106 % of control | dose: 75.0 mg/kg/injection, schedule: Q01DX009 (ip), vehicle: saline 105 % of control | dose: 150.0 mg/kg/injection, schedule: Q01DX001 (ip), vehicle: saline 102 % of control | dose: 150.0 mg/kg/injection, schedule: Q01DX009 (ip), vehicle: saline 105 % of control | dose: 300.0 mg/kg/injection, schedule: Q01DX001 (ip), vehicle: saline 98 % of control | dose: 300.0 mg/kg/injection, schedule: Q01DX009 (ip), vehicle: saline 97 % of control

O=C(C=C(C(F)(F)F)C(F)(F)F)c1ccc(F)cc1
inactive: dose: 6.25 mg/kg/injection, schedule: Q01DX009 (ip), vehicle: other 91 % of control | dose: 6.25 mg/kg/injection, schedule: Q04DX003 (ip), vehicle: other 95 % of control | dose: 12.5 mg/kg/injection, schedule: Q01DX009 (ip), vehicle: other 92 % of control | dose: 12.5 mg/kg/injection, schedule: Q04DX003 (ip), vehicle: other 109 % of control | dose: 25.0 mg/kg/injection, schedule: Q01DX009 (ip), vehicle: other 103 % of control | dose: 25.0 mg/kg/injection, schedule: Q04DX003 (ip), vehicle: other 97 % of control and 103 % of control

O=C1c2ccccc2C(=O)C2CC(c3ccccc3)=C(c3ccccc3)CC12 (stereo unspecified)
inactive: [14] 96 % of control | [15] 96 % of control | [16] 100 % of control

COC(=O)C1C2CCc3cc(OC)ccc3C2CC(=O)C1(C)C(=O)OC (stereo unspecified)
inactive: dose: 100.0 mg/kg/injection, schedule: Q01DX009 (sc), vehicle: steriod suspending solution 98 % of control | dose: 200.0 mg/kg/injection, schedule: Q01DX009 (sc), vehicle: steriod suspending solution 98 % of control | dose: 400.0 mg/kg/injection, schedule: Q01DX009 (sc), vehicle: steriod suspending solution 107 % of control

c1cnc2c3c(ccc2c1)CN(C12CC4CC(CC(C4)C1)C2)CO3
inactive: [18] 102 % of control | [19] 107 % of control

CCSC1OC(C(COC(C)=O)OC(C)=O)C(OC(C)=O)C1NC(=O)OCc1ccccc1 (stereo unspecified)
inactive: [5] 100 % of control | [6] 97 % of control | [7] 97 % of control | [17] 91 % of control

Reference: PubChem BioAssay AID248 (DTP/NCI, 2004)
